From patent US20240383901A1, “SUBSTITUTED PYRROLO[2,3-D]PYRIMIDINES, THEIR PREPARATION AND THEIR THERAPEUTIC APPLICATION” (SANOFI, priority 2021, published 2024)

Key:
full-length LRRK2 G2019S = target: T1, full-length LRRK2 G2019S (Homo sapiens, UniProt Q5S007, G2019S); assay: LRRK2-G2019S kinase activity assay (Lanthascreen TR-FRET); format: biochemical; settings: 1.1 mM ATP
T1 construct: DYKDDDDK (FLAG)
Procedure: (§1) The potency of compounds was evaluated in vitro using the Lanthascreen® technology (ThermoFisher Scientific).
(§2) In a typical experiment, the reaction assay buffer contains 50 mM Tris pH8.2, 1 mM EGTA, 2.5 mM MgCl2, 0.05% Triton X100, 0.15% BSA and 1 mM DTT. The detection of the assay is performed using 1 nM Terbium labeled anti-phospho-LRRKtide (ThermoFisher Scientific) diluted in a TR-FRET buffer (ThermoFisher Scientific).
(§3) The experimental procedure was performed with Greiner small volume® 384-well. […] The working solution of compounds was prepared in a separate Greiner microplate.
(§4) The kinase reaction was initiated by addition of the ATP/LRRKtide substrate mix diluted in the reaction assay buffer. The reaction mix was incubated for at least 10 minutes at room temperature (initial velocity conditions). Reaction was stopped by addition of Terbium labeled anti-phospho-LRRKtide diluted into the detection buffer supplemented with EDTA (ThermoFisher Scientific). Plates are incubated for at least 30 minutes at room temperature and read on an Envision™ multimode plate reader (PerkinElmer) with LanthaScreen™. The TR-FRET 520:495 nm emission ratio was calculated and used to determine the IC50 value from a dose response curve fit to the 4-parameter logistic equation. The activity with respect to LRRK2 kinase in this test is given by the concentration which inhibits 50% of the LRRK2 activity (or IC50) in nM.

[1] = target: T2, full-length LRRK2 wild type (Homo sapiens, UniProt Q5S007); assay: LRRK2 WT assay (Assay A, Lanthascreen TR-FRET, 500 uM ATP); format: biochemical; settings: Assay A (values without *)
T2 construct: DYDDDDK tagged full-length LRRK2 wild type is used
Procedure: as §1, §2, §3, §4

T2 sequence (Q5S007 whole entry): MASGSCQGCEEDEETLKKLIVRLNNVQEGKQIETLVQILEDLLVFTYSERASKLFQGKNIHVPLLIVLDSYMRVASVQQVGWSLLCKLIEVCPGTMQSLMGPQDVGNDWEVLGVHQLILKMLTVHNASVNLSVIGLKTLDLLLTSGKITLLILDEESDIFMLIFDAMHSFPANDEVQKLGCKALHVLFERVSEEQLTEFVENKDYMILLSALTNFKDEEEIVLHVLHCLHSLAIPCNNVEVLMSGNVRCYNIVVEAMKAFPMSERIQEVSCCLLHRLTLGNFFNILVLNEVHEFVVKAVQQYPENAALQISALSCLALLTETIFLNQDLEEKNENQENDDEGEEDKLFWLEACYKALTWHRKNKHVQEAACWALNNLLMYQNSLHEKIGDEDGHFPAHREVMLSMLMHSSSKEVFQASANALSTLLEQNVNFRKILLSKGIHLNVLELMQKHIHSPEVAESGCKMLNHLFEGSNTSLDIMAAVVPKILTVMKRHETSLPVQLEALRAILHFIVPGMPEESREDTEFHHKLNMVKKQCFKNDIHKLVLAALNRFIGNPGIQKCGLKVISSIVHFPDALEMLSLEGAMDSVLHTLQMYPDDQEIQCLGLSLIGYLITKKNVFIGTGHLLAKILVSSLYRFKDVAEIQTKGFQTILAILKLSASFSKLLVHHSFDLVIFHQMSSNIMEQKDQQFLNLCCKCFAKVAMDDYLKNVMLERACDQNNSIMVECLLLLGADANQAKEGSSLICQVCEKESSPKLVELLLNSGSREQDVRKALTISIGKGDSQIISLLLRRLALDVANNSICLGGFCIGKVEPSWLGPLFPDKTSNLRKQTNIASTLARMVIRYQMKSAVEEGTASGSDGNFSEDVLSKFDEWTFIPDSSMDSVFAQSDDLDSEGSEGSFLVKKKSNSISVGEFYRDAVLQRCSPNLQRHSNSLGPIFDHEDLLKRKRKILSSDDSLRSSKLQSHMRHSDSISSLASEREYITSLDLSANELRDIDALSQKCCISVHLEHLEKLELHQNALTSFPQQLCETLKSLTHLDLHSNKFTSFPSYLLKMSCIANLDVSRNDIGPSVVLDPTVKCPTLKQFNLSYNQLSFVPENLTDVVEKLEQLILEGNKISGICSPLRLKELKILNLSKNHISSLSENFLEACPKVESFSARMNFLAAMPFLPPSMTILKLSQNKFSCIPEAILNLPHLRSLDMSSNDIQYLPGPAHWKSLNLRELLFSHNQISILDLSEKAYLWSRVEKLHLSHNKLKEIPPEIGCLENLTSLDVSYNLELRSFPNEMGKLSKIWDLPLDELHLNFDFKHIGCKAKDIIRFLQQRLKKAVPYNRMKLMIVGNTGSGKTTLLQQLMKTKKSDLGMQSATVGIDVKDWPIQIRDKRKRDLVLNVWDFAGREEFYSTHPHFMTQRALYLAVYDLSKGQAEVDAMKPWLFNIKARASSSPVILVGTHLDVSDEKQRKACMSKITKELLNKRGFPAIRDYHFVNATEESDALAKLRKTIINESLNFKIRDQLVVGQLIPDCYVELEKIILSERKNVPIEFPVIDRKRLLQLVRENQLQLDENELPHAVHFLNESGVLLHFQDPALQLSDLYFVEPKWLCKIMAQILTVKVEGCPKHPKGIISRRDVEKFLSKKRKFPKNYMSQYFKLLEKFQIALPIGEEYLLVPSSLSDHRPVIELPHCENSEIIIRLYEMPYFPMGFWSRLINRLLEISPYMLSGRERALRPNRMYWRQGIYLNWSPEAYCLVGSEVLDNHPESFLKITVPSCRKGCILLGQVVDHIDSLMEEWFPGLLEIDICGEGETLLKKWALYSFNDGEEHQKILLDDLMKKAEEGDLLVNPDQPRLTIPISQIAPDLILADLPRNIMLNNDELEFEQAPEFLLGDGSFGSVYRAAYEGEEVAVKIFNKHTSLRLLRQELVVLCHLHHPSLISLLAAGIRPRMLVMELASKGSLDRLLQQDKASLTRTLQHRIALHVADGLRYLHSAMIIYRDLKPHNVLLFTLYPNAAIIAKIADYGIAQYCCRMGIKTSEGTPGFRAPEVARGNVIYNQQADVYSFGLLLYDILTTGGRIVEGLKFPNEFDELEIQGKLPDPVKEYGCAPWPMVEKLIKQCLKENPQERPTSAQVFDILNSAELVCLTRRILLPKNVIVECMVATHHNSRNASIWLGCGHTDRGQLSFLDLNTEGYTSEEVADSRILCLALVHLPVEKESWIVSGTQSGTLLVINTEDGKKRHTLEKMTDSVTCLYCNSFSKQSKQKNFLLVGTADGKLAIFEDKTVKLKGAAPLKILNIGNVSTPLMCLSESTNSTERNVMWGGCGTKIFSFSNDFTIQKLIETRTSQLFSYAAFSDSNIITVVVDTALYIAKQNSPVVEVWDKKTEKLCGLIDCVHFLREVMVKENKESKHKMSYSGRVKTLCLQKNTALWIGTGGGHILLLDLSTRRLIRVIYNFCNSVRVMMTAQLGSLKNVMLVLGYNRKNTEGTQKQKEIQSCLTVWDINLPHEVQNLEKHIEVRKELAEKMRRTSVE
T1 sequence (Q5S007 whole entry G2019S): as the sequence (Q5S007 whole entry) above, with G2019S counted along it

| SMILES | IC50 (full-length LRRK2 G2019S) | IC50 [1] |
| --- | --- | --- |
| COCn1cc(Nc2ncc3cc(C#N)n([C@H]4COC[C@@H]4C)c3n2)c(O[C@@H]2CO[C@H]2C)n1 (mixture of isomers) [Example 39, 2-[[1-(methoxymethyl)-3-[(trans)-2-methyloxetan-3-yl]oxy-pyrazol-4-yl]amino]-7-[(3R,4R)-4-methyltetrahydrofuran-3-yl]pyrrolo[2,3-d]pyrimidine-6-carbonitrile] | 8 nM | 10 nM |
| CO[C@H]1COC[C@H]1n1c(C#N)cc2cnc(Nc3cn(C4COC4)nc3OC(C)C(F)(F)F)nc21 (mixture of isomers) [Example 54, 7-((3R,4R)-4-Methoxytetrahydrofuran-3-yl)-2-((1-(oxetan-3-yl)-3-((1,1,1-trifluoropropan-2-yl)oxy)-1 H-pyrazol-4-yl)amino)-7H-pyrrolo[2,3-d]pyrimidine-6-carbonitrile] | 27 nM | 61 nM |
| [2H]C([2H])([2H])n1cc(Nc2ncc3cc(C#N)n(C4COCC4C)c3n2)c(OC2CCC2(C)O)n1 (mixture of isomers) [Example 142, 2-((3-((1S,2S)-2-hydroxy-2-methylcyclobutoxy)-1-(methyl-d3)-1 H-pyrazol-4-yl)amino)-7-((3R,4R)-4-methyltetrahydrofuran-3-yl)-7H-pyrrolo[2,3-d]pyrimidine-6-carbonitrile and 2-((3-((1 R,2R)-2-hydroxy-2-methylcyclobutoxy)-1-(methyl-d3)-1 H-pyrazol-4-yl)amino)-7-((3R,4R)-4-methyltetrahydrofuran-3-yl)-7H-pyrrolo[2,3-d]pyrimidine-6-carbonitrile] | 5 nM | 3 nM |
| COC[C@H](C)n1c(C#N)cc2cnc(Nc3cn(CCO)nc3OC3CCOC3)nc21 (mixture of isomers) [Example 151, 2-((1-(2-hydroxyethyl)-3-((tetrahydrofuran-3-yl)oxy)-1 H-pyrazol-4-yl)amino)-7-((S)-1-methoxypropan-2-yl)-7H-pyrrolo[2,3-d]pyrimidine-6-carbonitrile] | 27 nM | 31 nM |
| CC(C(F)F)n1cc(Nc2ncc3cc(C#N)n([C@H]4COC[C@@H]4C)c3n2)c(OC2CC2)n1 (mixture of isomers) [Example 43, 2-((3-cyclopropoxy-1-(1,1-difluoropropan-2-yl)-1H-pyrazol-4-yl)amino)-7-((3R,4R)-4-methyltetrahydrofuran-3-yl)-7H-pyrrolo[2,3-d]pyrimidine-6-carbonitrile] | 1 nM | 2 nM |
| CC(C)Oc1nn(C)cc1Nc1ncc2cc(C#N)n([C@@H]3COC[C@@H]3C)c2n1 (racemic) [Example 47, 2-((3-isopropoxy-1-methyl-1 H-pyrazol-4-yl)amino)-7-((cis)-4-methyltetrahydrofuran-3-yl)-7H-pyrrolo[2,3-d]pyrimidine-6-carbonitrile] | 31 nM | 36 nM |
| CO[C@@H]1COC[C@H]1n1c(C#N)cc2cnc(Nc3cn(C)nc3OC3COC3)nc21 (racemic) [Example 70, 7-((trans)-4-methoxytetrahydrofuran-3-yl)-2-((1-methyl-3-(oxetan-3-yloxy)-1 H-pyrazol-4-yl)amino)-7H-pyrrolo[2,3-d]pyrimidine-6-carbonitrile] | 160 nM | 270 nM |
| CO[C@@H]1COC[C@H]1n1c(C#N)cc2cnc(Nc3ccc(C(C)(C)O)cc3OC3COC3)nc21 (racemic) [Example 71, 2-((4-(2-hydroxypropan-2-yl)-2-(oxetan-3-yloxy)phenyl)amino)-7-((trans)-4-methoxytetrahydrofuran-3-yl)-7H-pyrrolo[2,3-d]pyrimidine-6-carbonitrile] | 69 nM | 109 nM |
| C[C@@H]1COC[C@H]1Oc1nn(C)cc1Nc1ncc2cc(C#N)n([C@H]3COC[C@@H]3C)c2n1 (single isomer, unassigned) [Example 2] | 5 nM | 5 nM |
| C[C@@H]1COC[C@H]1Oc1nn(C)cc1Nc1ncc2cc(C#N)n([C@H]3COC[C@@H]3C)c2n1 (single isomer, unassigned) [Example 3] | 4 nM | 5 nM |
| CC(C(F)F)n1cc(Nc2ncc3cc(C#N)n([C@H]4COC[C@@H]4C)c3n2)c(OC2COC2)n1 (single isomer, unassigned) [Example 4] | 1 nM | 1 nM |
| CC(C(F)F)n1cc(Nc2ncc3cc(C#N)n([C@H]4COC[C@@H]4C)c3n2)c(OC2COC2)n1 (single isomer, unassigned) [Example 5] | 5 nM | 4 nM |
| C[C@@H]1OC[C@H]1Oc1nn(C)cc1Nc1ncc2cc(C#N)n([C@H]3COC[C@@H]3C)c2n1 (single isomer, unassigned) [Example 6] | 4 nM | 5 nM |
| C[C@@H]1OC[C@H]1Oc1nn(C)cc1Nc1ncc2cc(C#N)n([C@H]3COC[C@@H]3C)c2n1 (single isomer, unassigned) [Example 7] | 2 nM | 2 nM |
| CC(Oc1nn(C2COC2)cc1Nc1ncc2cc(C#N)n([C@H]3COC[C@@H]3C)c2n1)C(F)(F)F (single isomer, unassigned) [Example 10] | 1 nM | 1 nM |
| CC(Oc1nn(C2COC2)cc1Nc1ncc2cc(C#N)n([C@H]3COC[C@@H]3C)c2n1)C(F)(F)F (single isomer, unassigned) [Example 11] | 19 nM | 27 nM |
| CO[C@@H]1COC[C@H]1Oc1nn(C)cc1Nc1ncc2cc(C#N)n([C@H]3COC[C@@H]3C)c2n1 (single isomer, unassigned) [Example 12] | 6 nM | 8 nM |
| CO[C@@H]1COC[C@H]1Oc1nn(C)cc1Nc1ncc2cc(C#N)n([C@H]3COC[C@@H]3C)c2n1 (single isomer, unassigned) [Example 13] | 9 nM | 13 nM |
| CC(Oc1nn(C)cc1Nc1ncc2cc(C#N)n([C@H]3COC[C@@H]3C)c2n1)C(F)(F)F (single isomer, unassigned) [Example 21] | 1 nM | 1 nM |
| CC(Oc1nn(C)cc1Nc1ncc2cc(C#N)n([C@H]3COC[C@@H]3C)c2n1)C(F)(F)F (single isomer, unassigned) [Example 22] | 25 nM | 30 nM |
| [2H]C([2H])([2H])n1cc(Nc2ncc3cc(C#N)n([C@H]4COC[C@@H]4C)c3n2)c(O[C@H]2CO[C@H]2C)n1 (single isomer, unassigned) [Example 23] | 8 nM | 10 nM |
| C[C@H]1COC[C@H]1n1c(C#N)cc2cnc(Nc3cn(C)nc3OC3COC3)nc21 (single isomer, unassigned) [Example 45, 2-((1-methyl-3-(oxetan-3-yloxy)-1 H-pyrazol-4-yl)amino)-7-((cis)-4-methyltetrahydrofuran-3-yl)-7H-pyrrolo[2,3-d]pyrimidine-6-carbonitrile] | 35 nM | 46 nM |
| C[C@H]1COC[C@H]1n1c(C#N)cc2cnc(Nc3cn(C)nc3OC3COC3)nc21 (single isomer, unassigned) [Example 46, 2-((1-methyl-3-(oxetan-3-yloxy)-1 H-pyrazol-4-yl)amino)-7-((cis)-4-methyltetrahydrofuran-3-yl)-7H-pyrrolo[2,3-d]pyrimidine-6-carbonitrile] | 413 nM | 489 nM |
| CO[C@H]1COC[C@H]1n1c(C#N)cc2cnc(Nc3cn(C(C)C#N)nc3OC(C)C)nc21 (single isomer, unassigned) [Example 56] | 4 nM | 7 nM |
| C[C@@H]1OC[C@H]1n1c(C#N)cc2cnc(Nc3cn(C)nc3OC3COC3)nc21 (single isomer, unassigned) [Example 76, 7-[(trans)-2-methyloxetan-3-yl]-2-[[1-methyl-3-(oxetan-3-yloxy)pyrazol-4-yl]amino]pyrrolo[2,3-d]pyrimidine-6-carbonitrile] | 200 nM | 241 nM |
| C[C@@H]1OC[C@H]1n1c(C#N)cc2cnc(Nc3cn(C)nc3OC3COC3)nc21 (single isomer, unassigned) [Example 77, 7-[(trans)-2-methyloxetan-3-yl]-2-[[1-methyl-3-(oxetan-3-yloxy)pyrazol-4-yl]amino]pyrrolo[2,3-d]pyrimidine-6-carbonitrile] | 21 nM | 34 nM |
| CC(C)Oc1nn(C)cc1Nc1ncc2cc(C#N)n([C@@H]3CO[C@H]3C)c2n1 (single isomer, unassigned) [Example 78, 7-[(trans)-2-methyloxetan-3-yl]-2-[(1-methyl-3-propan-2-yloxypyrazol-4-yl)amino]pyrrolo[2,3-d]pyrimidine-6-carbonitrile] | 64 nM | 79 nM |
| COC[C@H](C)n1c(C#N)cc2cnc(Nc3cn(C)nc3O[C@@H]3CO[C@H]3C)nc21 (single isomer, unassigned) [Example 87] | – | 8 nM |
| [2H]C([2H])([2H])n1cc(Nc2ncc3cc(C#N)n([C@@H](C)COC)c3n2)c(O[C@@H]2CO[C@H]2C)n1 (single isomer, unassigned) [Example 89] | – | 9 nM |
